Test results as given in publication PMC7876453, “Targeting Indoleamine 2,3-Dioxygenase in Cancer Models Using the Novel Small Molecule Inhibitor NTRC 3883-0” (Frontiers in Immunology, 2021).
Where two headings read alike, the source gives them in different places.

Key:
[1] = in vivo pharmacokinetics, dog; design: species or system Beagle dogs; conditions: Beagle, plasma; for clearance / Vd: intravenous; for Vd: read-out: Vss
Procedure: (§1) Pharmacokinetic properties of NTRC 3883-0 were determined in plasma following single oral (p.o.) and i.v. administration to male CD-1 mice (n = 6 per treatment group with three mice sampled per time point), Wistar rats (n = 3), cynomolgus monkey (n = 1) and Beagle dogs (n = 3). Formulations were prepared in DMSO, Kolliphor® EL, 5% D-mannitol in Elix water at a volume ratio of 1:1:8 for i.v. administration, and in 0.5% gelatin, 5% D-mannitol in Elix water for p.o. administration. Plasma samples were collected at eight to eleven time points up to 24 h after administration. Pharmacokinetic properties and required dosing in humans were predicted by allometric scaling by Karin Jorga Life Science Consulting (Basel, Switzerland) ( Figure S2 and Table S2 ).

[2] = human pharmacokinetics predicted by allometric scaling; conditions: predicted parameters, assuming 100% bioavailability
Procedure: as §1
Table S2. Pharmacokinetic parameters of NTRC 3883-0 observed in mouse, rat, monkey and dog, and predicted for humans using allometric scaling. Data in bold are measured, while data in italics are calculated or predicted (for humans). The clearance (Cl) and volume of distribution at steady state (Vss) in humans are predicted based on extrapolation of the parameters in the four species as shown in Supplementary Figure S2. […] The half-life (t1/2) in humans was predicted as Vss/Cl. […] ND = not determined.

[3] = plasma protein binding, human; type: in vitro ADME; conditions: column Human (predicted)
Procedure: Supplement DataSheet_1.docx, table 2: Table S2. Pharmacokinetic parameters of NTRC 3883-0 observed in mouse, rat, monkey and dog, and predicted for humans using allometric scaling. Data in bold are measured, while data in italics are calculated or predicted (for humans). The clearance (Cl) and volume of distribution at steady state (Vss | column: Human (predicted)

A375 + IFNγ (hIDO1) = molecular target: T1, A375 + IFNγ (hIDO1) (Homo sapiens, UniProt P14902); assay: cell-based assay, Trp-catabolizing activity in IFNγ-stimulated A375 cells; conditions: IFNγ-stimulated A375 human melanoma cells
T1 construct: host or cells: A375 cells stimulated with IFNγ

HEK-hIDO1 = HEK-hIDO1 (Homo sapiens, UniProt P14902); assay: cell-based assay, Trp-catabolizing activity in HEK-hIDO1 cells
Sequence of HEK-hIDO1 (P14902 whole entry): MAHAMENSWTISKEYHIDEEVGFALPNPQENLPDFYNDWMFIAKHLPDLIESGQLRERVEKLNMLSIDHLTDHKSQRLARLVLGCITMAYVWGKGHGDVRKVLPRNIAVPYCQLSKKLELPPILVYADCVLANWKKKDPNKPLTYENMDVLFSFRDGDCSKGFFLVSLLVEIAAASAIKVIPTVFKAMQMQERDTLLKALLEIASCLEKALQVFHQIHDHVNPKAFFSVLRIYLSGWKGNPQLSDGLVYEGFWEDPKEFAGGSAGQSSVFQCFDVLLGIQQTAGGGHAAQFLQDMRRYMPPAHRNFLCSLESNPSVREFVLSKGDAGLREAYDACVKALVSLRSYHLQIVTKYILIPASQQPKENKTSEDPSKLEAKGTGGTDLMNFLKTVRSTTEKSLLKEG

T1 sequence (P14902 whole entry): as above

Q: Which half-life [1] does the source give for O=C1CN(C(=O)c2c(F)cccc2F)[C@H](c2cccc(Br)c2)N1O [NTRC 3883-0] here?
A: 2.8 h

Q: What about the clearance [1] of the same compound?
A: 28.6 mL/min/kg

Q: And the clearance ([1]; body weight 10 kg)?
A: 286 mL/min

Q: What about the Vd ([1]; body weight 10 kg) of the same compound?
A: 13.6 L

Q: And the Vd [1]?
A: 1.36 L/kg

Q: What about the bioavailability ([1]; po, p.o. versus i.v., read-out: Bioavailability (F)) of the same compound?
A: 32%

Q: What about the “minimum dose required to reach a target concentration of 1 μM on average during the dosing interval” value [2] of the same compound?
A: 1725 mg per day

Q: What about the fraction unbound [3] of the same compound?
A: 0.26

Q: What about the IC50 (A375 + IFNγ (hIDO1)) of the same compound?
A: 182 nM

Q: What about the IC50 (HEK-hIDO1) of the same compound?
A: 119 nM
